Measurements published in PMC6008492, “Structure activity relationship studies on rhodanines and derived enethiol inhibitors of metallo-β-lactamases” (Bioorganic & Medicinal Chemistry, 2018).
Like-named read-outs stand apart in the source and are kept apart here.

Key:
SPM-1 = SPM-1 (Pseudomonas aeruginosa, UniProt Q8G9Q0); assay: SPM-1 inhibition, fluorogenic cephalosporin (FC5) hydrolysis; type: biochemical
Description: (§1) Inhibition analyses against bacterial MBLs and SBLs were performed as described previously.[22], [24], [26] Residual enzyme activities were determined for a range of inhibitor concentrations. Non-linear regression fitting of IC50 curves was carried out using a three-parameter dose–response curve in GraphPad Prism. Errors in IC50 values are expressed as: σ(logIC50)/logIC50×IC50
(§2) We first screened the inhibitors against a representative set of presently clinically important and other MBLs[22], comprising both Class B1 enzymes (NDM-1, New Delhi MBL-1; VIM-2, Verona integron–encoded MBL-2; BcII, Bacillus cereus II MBL; SPM-1, São Paulo MBL-1; IMP-1, imipenemase MBL-1) and the Class B2 MBL CphA (carbapenem hydrolysing MBL from Aeromonas hydrophila).[22] The latter MBL (CphA) only utilises one active site Zn(II) ion in catalysis, whilst the others normally use two Zn(II) ions.
Figure S5: IC50 curves for SPM-1 inhibition time courses. Residual activities were calculated from the
(§3) initial rate of FC5 hydrolysis after incubation of the enzyme with the inhibitor for 10 minutes. […]

IMP-1 = biological target: T1, IMP-1 (Serratia marcescens, UniProt P52699); assay: IMP-1 inhibition, fluorogenic cephalosporin (FC5) hydrolysis; type: biochemical
T1 construct: made in house
T1 sequence (P52699 19-246, looked up, species assumed): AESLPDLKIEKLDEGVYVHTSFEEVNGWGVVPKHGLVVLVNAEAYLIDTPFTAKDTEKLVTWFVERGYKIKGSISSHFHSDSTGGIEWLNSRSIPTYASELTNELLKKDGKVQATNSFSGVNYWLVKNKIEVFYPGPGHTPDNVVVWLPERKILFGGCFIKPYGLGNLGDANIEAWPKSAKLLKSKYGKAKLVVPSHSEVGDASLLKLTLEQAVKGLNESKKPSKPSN
Description: as §1, §2
Figure S3: IC50 curves for IMP-1 inhibition time courses. Residual activities were calculated from the
initial rate of FC5 hydrolysis after incubation of the enzyme with the inhibitor for 10 minutes.

BcII = biological target: T2, BcII (Bacillus cereus, UniProt P04190); assay: biochemical
T2 construct: made in house
T2 sequence (P04190 31-257): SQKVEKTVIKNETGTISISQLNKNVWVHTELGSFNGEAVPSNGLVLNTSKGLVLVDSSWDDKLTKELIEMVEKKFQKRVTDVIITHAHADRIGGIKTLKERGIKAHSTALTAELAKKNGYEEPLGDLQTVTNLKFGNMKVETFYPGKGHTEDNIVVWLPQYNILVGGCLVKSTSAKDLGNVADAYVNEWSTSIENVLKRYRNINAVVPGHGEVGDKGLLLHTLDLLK
Description: as §1, §2
Figure S2: IC50 curves for BcII inhibition time courses. Residual activities were calculated from the initial
rate of FC5 hydrolysis after incubation of the enzyme with the inhibitor for 10 minutes. […]

VIM-2 = biological target: T3, VIM-2 (Escherichia coli, UniProt Q5U7L7); assay: biochemical
T3 construct: made in house
Description: as §1
as §2, with “ions. We also screened the inhibitors against a representative panel of SBLs from different classes (TEM-1, Temoneira β-lactamase-1, class A; CTX-M-15, cefotaxime hydrolysing β-lactamase from Munich 15, class A, extended spectrum β-lactamase (ESBL); AmpC E. coli, class C, and OXA-10, oxacillinase-10, class D).” for “ions.”
Figure S6: IC50 curves for VIM-2 inhibition time courses. Residual activities were calculated from the
as §3

NDM-1 = biological target: T4, NDM-1 (Klebsiella pneumoniae, UniProt C7C422); assay: NDM-1 inhibition, fluorogenic cephalosporin (FC5) hydrolysis; type: biochemical
T4 construct: made in house
T4 sequence (C7C422 29-270, looked up, species assumed): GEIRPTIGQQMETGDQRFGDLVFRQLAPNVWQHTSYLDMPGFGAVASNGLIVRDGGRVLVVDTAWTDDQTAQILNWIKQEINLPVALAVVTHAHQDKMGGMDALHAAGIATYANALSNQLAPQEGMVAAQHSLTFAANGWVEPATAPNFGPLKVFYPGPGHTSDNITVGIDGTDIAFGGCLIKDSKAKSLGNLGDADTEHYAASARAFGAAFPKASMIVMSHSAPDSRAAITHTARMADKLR
Description: as §1, §2
Figure S4: IC50 curves for NDM-1 inhibition time courses. Residual activities were calculated from the
as §3

CphA = biological target: T5, CphA (Aeromonas hydrophila, UniProt P26918); assay: CphA (subclass B2 MBL) inhibition; type: biochemical
T5 construct: made in house
T5 sequence (P26918 28-254): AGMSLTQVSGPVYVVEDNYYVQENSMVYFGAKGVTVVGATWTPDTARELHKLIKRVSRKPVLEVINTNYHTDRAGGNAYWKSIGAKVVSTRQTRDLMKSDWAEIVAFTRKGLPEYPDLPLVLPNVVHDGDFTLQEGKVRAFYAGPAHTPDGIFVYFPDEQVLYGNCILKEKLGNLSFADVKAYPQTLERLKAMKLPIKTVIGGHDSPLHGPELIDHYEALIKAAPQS
Description: as §1
as §2, with “ions. We also screened the inhibitors against a representative panel of SBLs from different classes (TEM-1, Temoneira β-lactamase-1, class A; CTX-M-15, cefotaxime hydrolysing β-lactamase from Munich 15, class A, extended spectrum β-lactamase (ESBL); AmpC E. coli, class C, and OXA-10, oxacillinase-10, class D).” for “ions.”

TEM-1 = biological target: T6, TEM-1 (Escherichia coli, UniProt P62593); assay: SBL inhibition, TEM-1; type: biochemical; settings: read-out: residual activity TEM-1
T6 construct: made in house
T6 sequence (P62593 24-286 limits assumed): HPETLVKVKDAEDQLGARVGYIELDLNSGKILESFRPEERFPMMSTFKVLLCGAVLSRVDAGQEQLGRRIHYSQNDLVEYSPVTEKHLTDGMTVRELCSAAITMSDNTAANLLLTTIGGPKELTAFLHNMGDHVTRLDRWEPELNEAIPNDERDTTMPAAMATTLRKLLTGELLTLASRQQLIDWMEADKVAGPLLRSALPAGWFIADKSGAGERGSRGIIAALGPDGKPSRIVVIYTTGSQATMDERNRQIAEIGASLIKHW
Description: as §1
as §2, with “ions. We also screened the inhibitors against a representative panel of SBLs from different classes (TEM-1, Temoneira β-lactamase-1, class A; CTX-M-15, cefotaxime hydrolysing β-lactamase from Munich 15, class A, extended spectrum β-lactamase (ESBL); AmpC E. coli, class C, and OXA-10, oxacillinase-10, class D).” for “ions.”
(§4) Figure S1. Residual activities of serine-β-lactamases (SBLs) upon inhibition by rhodanines and enethiols at
(§5) Inhibition of intact rhodanine on a panel of SBLs
(§6) Inhibition of intact rhodanine amide on a panel […]

CTX-M-15 = biological target: T7, CTX-M-15 (Escherichia coli, UniProt Q9EXV5); assay: SBL inhibition, CTX-M-15; type: biochemical; settings: read-out: residual activity CTX-M-15
T7 construct: made in house
T7 sequence (Q9EXV5 29-291, species assumed): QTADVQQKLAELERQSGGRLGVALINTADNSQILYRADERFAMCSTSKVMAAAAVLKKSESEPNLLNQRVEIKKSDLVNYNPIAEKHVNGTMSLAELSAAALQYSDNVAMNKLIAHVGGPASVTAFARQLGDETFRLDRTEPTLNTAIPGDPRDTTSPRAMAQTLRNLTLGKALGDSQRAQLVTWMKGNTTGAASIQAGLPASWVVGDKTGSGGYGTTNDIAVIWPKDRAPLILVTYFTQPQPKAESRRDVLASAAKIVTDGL
Description: as §1
as §2, with “ions. We also screened the inhibitors against a representative panel of SBLs from different classes (TEM-1, Temoneira β-lactamase-1, class A; CTX-M-15, cefotaxime hydrolysing β-lactamase from Munich 15, class A, extended spectrum β-lactamase (ESBL); AmpC E. coli, class C, and OXA-10, oxacillinase-10, class D).” for “ions.”
as §4, §5, §6

AmpC = biological target: T8, AmpC (Escherichia coli, UniProt P00811); assay: SBL inhibition, AmpC; type: biochemical, E. coli; settings: read-out: residual activity AmpC
T8 construct: made in house
T8 sequence (P00811 20-377): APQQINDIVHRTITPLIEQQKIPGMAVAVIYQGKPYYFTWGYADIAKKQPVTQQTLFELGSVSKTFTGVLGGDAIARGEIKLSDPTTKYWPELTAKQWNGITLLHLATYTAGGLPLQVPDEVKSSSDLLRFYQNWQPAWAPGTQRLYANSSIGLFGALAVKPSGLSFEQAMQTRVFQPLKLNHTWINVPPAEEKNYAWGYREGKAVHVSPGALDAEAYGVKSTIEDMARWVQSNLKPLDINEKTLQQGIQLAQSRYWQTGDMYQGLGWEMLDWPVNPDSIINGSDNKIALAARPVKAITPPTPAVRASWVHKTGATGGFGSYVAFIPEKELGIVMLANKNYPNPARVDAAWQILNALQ
Description: as §1
as §2, with “ions. We also screened the inhibitors against a representative panel of SBLs from different classes (TEM-1, Temoneira β-lactamase-1, class A; CTX-M-15, cefotaxime hydrolysing β-lactamase from Munich 15, class A, extended spectrum β-lactamase (ESBL); AmpC E. coli, class C, and OXA-10, oxacillinase-10, class D).” for “ions.”
as §4, §5, §6

OXA-10 = biological target: T9, OXA-10 (Pseudomonas aeruginosa, UniProt P14489); assay: SBL inhibition, OXA-10; type: biochemical; settings: read-out: residual activity OXA-10
T9 construct: made in house
T9 sequence (P14489 20-266, species assumed): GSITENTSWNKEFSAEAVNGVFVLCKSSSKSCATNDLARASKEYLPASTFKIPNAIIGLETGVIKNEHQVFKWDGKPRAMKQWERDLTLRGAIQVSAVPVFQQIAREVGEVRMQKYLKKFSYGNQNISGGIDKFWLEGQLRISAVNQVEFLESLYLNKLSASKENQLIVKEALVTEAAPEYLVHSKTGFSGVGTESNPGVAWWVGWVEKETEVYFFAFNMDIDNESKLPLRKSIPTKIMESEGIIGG
Description: as §1
as §2, with “ions. We also screened the inhibitors against a representative panel of SBLs from different classes (TEM-1, Temoneira β-lactamase-1, class A; CTX-M-15, cefotaxime hydrolysing β-lactamase from Munich 15, class A, extended spectrum β-lactamase (ESBL); AmpC E. coli, class C, and OXA-10, oxacillinase-10, class D).” for “ions.”
as §4, §5, §6

[1] = system: MBLs (SPM-1, IMP-1, BcII, VIM-2, NDM-1); type: biochemical; settings: for IC50: lower end of the range, read-out: IC50 values from (lowest across the MBL panel)
Description: as §1
as §2, with “ions. We also screened the inhibitors against a representative panel of SBLs from different classes (TEM-1, Temoneira β-lactamase-1, class A; CTX-M-15, cefotaxime hydrolysing β-lactamase from Munich 15, class A, extended spectrum β-lactamase (ESBL); AmpC E. coli, class C, and OXA-10, oxacillinase-10, class D).” for “ions.”

[2] = enethiols 6 assayed as sodium salts, 10 min incubation, read-out: IC50 SPM-1 (converted)
[3] = enethiols 6 assayed as sodium salts, 10 min incubation, read-out: IC50 IMP-1 (converted)
[4] = enethiols 6 assayed as sodium salts, 10 min incubation, read-out: IC50 BcII (converted)
[5] = enethiols 6 assayed as sodium salts, 10 min incubation, read-out: IC50 VIM-2 (converted)
[6] = enethiols 6 assayed as sodium salts, 10 min incubation, read-out: IC50 NDM-1
[7] = Table 2, read-out: IC50 versus BcII
[8] = Table 2, read-out: IC50 versus CphA

Sequence of SPM-1 (Q8G9Q0 entry or part of it): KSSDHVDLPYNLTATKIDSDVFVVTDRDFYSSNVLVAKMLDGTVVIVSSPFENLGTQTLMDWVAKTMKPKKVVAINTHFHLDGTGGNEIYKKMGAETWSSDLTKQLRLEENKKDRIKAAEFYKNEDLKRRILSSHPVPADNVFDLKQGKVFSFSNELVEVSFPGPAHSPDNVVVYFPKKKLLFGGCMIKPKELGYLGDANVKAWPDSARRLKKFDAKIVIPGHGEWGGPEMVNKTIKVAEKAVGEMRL

Row | SMILES | IC50 (SPM-1; [2]) [nM] | IC50 (IMP-1; [3]) [nM] | IC50 (BcII; [4]) [nM] | IC50 (VIM-2; [5]) [nM] | IC50 (NDM-1; [6]) [nM] | also measured
1 | O=C(O)/C(S)=C/c1csc2ccccc12 [Compound 6L] | 400 | 700 | 3100 | 500 | 11100 | 
2 | COc1ccc(/C=C2\SC(=S)N(CC(=O)O)C2=O)cc1 [Compound 3e] | > 50000 | > 50000 | > 50000 | > 50000 | > 50000 | 
3 | O=C(O)CN1C(=O)/C(=C/c2c(F)cccc2Cl)SC1=S [Compound 3j] | 1200 ± 300 | 43700 ± 500 | > 50000 | 9800 ± 2800 | > 50000 | 
4 | O=C(O)C(S)Cc1ccccc1 (stereo not drawn) [Compound 13b] |  |  |  |  |  | IC50 (SPM-1; Table 2, read-out: IC50 versus SPM-1): 70 ± 1 nM; IC50 (IMP-1; Table 2, read-out: IC50 versus IMP-1): 50 ± 2 nM; IC50 (BcII; [7]): 1400 ± 300 nM; IC50 (VIM-2; Table 2, read-out: IC50 versus VIM-2): 70 ± 2 nM; IC50 (NDM-1; Table 2, read-out: IC50 versus NDM-1): 38700 ± 4700 nM; IC50 (CphA; [8]): 130000 ± 10000 nM
5 | CN1CCN(NC(=O)CN2C(=O)/C(=C/c3csc4ccccc34)SC2=S)CC1 [Compound 5L] | > 50000 | > 50000 | 7200 | 41800 | > 50000 | 
6 | O=C(O)/C(S)=C/c1c(Cl)ccc(Cl)c1Cl [ML302F, reference compound] | 20 | 20 | 80 | 40 | 2400 | IC50 (CphA; read-out: IC50 CphA): 200 ± 4 nM
7 | O=C(O)/C(S)=C/c1c2ccccc2cc2ccccc12 [Compound 6r] |  |  | > 50000 | 50 ± 1 | 1700 ± 600 | remaining activity at 200 µM (TEM-1): ~1%; remaining activity at 200 µM (CTX-M-15): ~65%; remaining activity at 200 µM (AmpC): ~41%; remaining activity at 200 µM (OXA-10): ~47%
8 | O=C(O)/C(S)=C/c1cccc(Cl)c1Cl [Compound 6n] | 200 | 1000 | 1000 | 1300 | 46500 | IC50 [1]: 200 nM
9 | CN1CCN(NC(=O)CN2C(=O)/C(=C/c3c(Cl)cccc3Cl)SC2=S)CC1 [Compound 5m] | 200 | 200 | 200 | 300 | 28400 | IC50 (CphA): > 50000 nM
10 | O=C(O)/C(S)=C/c1c(F)cccc1F [Compound 6p] | 60 | 200 | 100 | 200 | 21500 | IC50 [1]: 60 nM
11 | O=C(O)/C(S)=C/c1c(F)ccc(F)c1F [Compound 6k] | 100 | 400 | 300 | 300 | 3300 | 
12 | O=P(O)(O)C(O)c1ccc(Br)cc1F (stereo not drawn) [Compound 22] |  |  |  |  |  | remaining activity at 100 µM (SPM-1; read-out: % Residual activity versus SPM-1): 92 ± 5%; remaining activity at 100 µM (IMP-1; read-out: % Residual activity versus IMP-1): 100%; remaining activity at 100 µM (BcII; read-out: % Residual activity versus BcII): 98 ± 2%; remaining activity at 100 µM (VIM-2; read-out: % Residual activity versus VIM-2): 100%; remaining activity at 100 µM (NDM-1; read-out: % Residual activity versus NDM-1): 100%; MBL inhibition, result in words ([1]; at 100 µM): inactive
13 | O=C(O)/C(S)=C/c1ccccc1 [Compound 6a] | 300 | 300 | 700 | 400 | 7900 | IC50 (BcII; [7]): 700 ± 200 nM; IC50 (CphA; [8]): 2100 ± 20 nM
